Laboratory results reported in patent EP4810052A2, “HCRHR2 SELECTIVE POLYPEPTIDES” (Gubra A/S, priority 2023, dated 2026).
Like-named read-outs stand apart in the source and are kept apart here. Starred links: 1 amine or outer side, 2 acyl side, 3 side chain; linkers in the order of their positions; H or OH if unused. Non-standard residues stand in square brackets, D forms with d. Residues, ends and D or L forms follow the SMILES beside them. Groups on a side chain read outwards from the residue. *: point of attachment. C20 diacid = O=C(O)CCCCCCCCCCCCCCCCCCC(=O)*; γGlu = O=C(O)[C@H](CCC(=O)[*:2])N[*:1]; NMeI = CC[C@H](C)[C@H](NC)C(=O)O; Nle = CCCC[C@H](N)C(=O)O; AEEA = NCCOCCOCC(=O)O; Aib = CC(C)(N)C(=O)O

What was measured:
hCRHR2 = biological target: T1, hCRHR2 (Homo sapiens, UniProt Q13324); assay: HTRF cAMP assay, determination of hCRHR2 potency (peptide libraries 5 conc., purified peptides 11 conc.); assay type: cell-based
T1 sequence (Q13324 1-411): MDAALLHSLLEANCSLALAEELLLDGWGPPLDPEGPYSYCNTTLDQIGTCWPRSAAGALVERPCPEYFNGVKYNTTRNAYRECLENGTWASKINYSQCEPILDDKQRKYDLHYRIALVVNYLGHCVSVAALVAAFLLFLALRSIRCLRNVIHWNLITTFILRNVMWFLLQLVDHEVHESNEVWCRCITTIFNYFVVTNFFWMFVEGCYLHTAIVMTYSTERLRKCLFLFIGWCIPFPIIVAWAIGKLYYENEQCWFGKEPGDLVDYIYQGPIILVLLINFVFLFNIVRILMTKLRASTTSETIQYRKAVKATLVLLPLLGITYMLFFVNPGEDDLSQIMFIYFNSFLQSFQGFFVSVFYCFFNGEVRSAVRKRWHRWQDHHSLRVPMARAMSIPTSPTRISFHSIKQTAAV
How it was run: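 CHO-K1 cells stably expressing human CRHR2, thawed from frozen stocks just before use and run in suspension; cAMP measured by competitive HTRF immunoassay (cryptate anti-cAMP, d2-cAMP). Agonist peptides tested at 5 (libraries) or 11 (purified) concentrations; EC50 from sigmoid variable-slope nonlinear regression.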

hCRHR1 = biological target: T2, hCRHR1 (Homo sapiens, UniProt P34998); assay: HTRF cAMP assay, determination of hCRHR1 potency (peptide libraries 5 conc., purified peptides 11 conc.); assay type: cell-based
T2 sequence (P34998 24-415): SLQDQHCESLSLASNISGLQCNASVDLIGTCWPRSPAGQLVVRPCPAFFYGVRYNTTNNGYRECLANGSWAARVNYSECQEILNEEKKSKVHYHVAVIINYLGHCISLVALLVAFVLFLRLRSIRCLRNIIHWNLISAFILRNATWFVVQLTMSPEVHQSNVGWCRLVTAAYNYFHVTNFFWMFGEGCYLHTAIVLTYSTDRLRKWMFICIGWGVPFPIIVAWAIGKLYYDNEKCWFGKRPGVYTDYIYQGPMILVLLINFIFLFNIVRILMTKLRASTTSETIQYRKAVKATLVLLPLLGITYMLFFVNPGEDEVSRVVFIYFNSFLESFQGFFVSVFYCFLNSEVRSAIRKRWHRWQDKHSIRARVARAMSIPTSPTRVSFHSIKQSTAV
From the text: HTRF (CisBio) cAMP assay: The assay technology has thoroughly been described in the CisBio HTRF cAMP assay Kit manual (# 62AM4PEC). Briefly, time resolved fluorescence technic was applied to measure cAMP. This technic is based on a competitive immunoassay using cryptate-labelled anti-cAMP antibody and d2-labeled cAMP. In the absence of cellular cAMP, the anti-cAMP cryptate conjugate may get into proximity to cAMP-d2 conjugate and energy (FRET) can be transferred from cryptate to d2. CHO-K1 cells stably expressing the human corticotropin-releasing hormone receptor 1 (Eurofins/DiscoverX Cat #95-0047C2 hCRHR1 stable monoclonal cell lines) were used as cells in suspension, brought to life from frozen cell stocks immediately before assay performance. […] Concentration-response evaluation of compounds was performed with 5 concentrations of agonist peptides and EC50 values were calculated by nonlinear regression using sigmoid concentration-response with variable slope. Concentration-response evaluation of compounds was performed with 11 concentrations of agonist peptides and EC50 values were calculated by nonlinear regression using sigmoid concentration-response with variable slope.

[1] = Table 3, matched molecular pairs X^38 L vs Nle, peptide library of Example 4, read-out: hCRHR2 pEC50 (converted)
[2] = Table 3, matched molecular pairs X^38 L vs Nle, peptide library of Example 4, read-out: hCRHR1 pEC50 (converted)
[3] = library peptides, matched molecular pairs L vs Nle in position X^38, read-out: Potency hCRHR2 pEC50 (converted)
[4] = library peptides, matched molecular pairs L vs Nle in position X^38, read-out: Potency hCRHR1 pEC50 (converted)

| EC50 (hCRHR2; [1]) [nM] | EC50 (hCRHR1; [2]) [nM] | EC50 (hCRHR2; [3]) [nM] | EC50 (hCRHR1; [4]) [nM] | Compound | also measured |
| --- | --- | --- | --- | --- | --- |
| 0.316 | 2510 | – | – | CC[C@H](C)[C@H](N)C(=O)N[C@H](C(=O)N[C@@H](CC(C)C)C(=O)N[C@@H](CO)C(=O)N[C@@H](CC(C)C)C(=O)N[C@@H](CC(=O)O)C(=O)N[C@H](C(=O)N1CCC[C@H]1C(=O)N[C@H](C(=O)NCC(=O)N[C@@H](CC(C)C)C(=O)N[C@@H](CC(C)C)C(=O)N[C@@H](CCC(N)=O)C(=O)N[C@H](C(=O)N[C@@H](CC(C)C)C(=O)N[C@@H](CC(C)C)C(=O)N[C@@H](CCC(=O)O)C(=O)N[C@@H](CCC(N)=O)C(=O)N[C@@H](C)C(=O)N[C@@H](CCCNC(=N)N)C(=O)N[C@@H](C)C(=O)N[C@@H](CCCNC(=N)N)C(=O)N[C@@H](C)C(=O)N[C@@H](CCC(N)=O)C(=O)N[C@@H](CCCNC(=N)N)C(=O)N[C@@H](CCC(N)=O)C(=O)N[C@@H](CCC(N)=O)C(=O)N[C@@H](C)C(=O)N[C@@H](CCCCNC(=O)COCCOCCNC(=O)COCCOCCNC(=O)CC[C@H](NC(=O)CC[C@H](NC(=O)CCCCCCCCCCCCCCCCCCC(=O)O)C(=O)O)C(=O)O)C(=O)N[C@H](C(=O)N[C@@H](CC(N)=O)C(=O)N[C@@H](C)C(=O)N[C@@H](CCC(=O)O)C(=O)N[C@H](C(=O)N[C@@H](CC(C)C)C(=O)N[C@@H](C)C(=O)N[C@@H](CCC(=O)O)C(=O)N[C@H](C(N)=O)C(C)C)[C@@H](C)CC)[C@@H](C)O)[C@@H](C)CC)[C@@H](C)CC)C(C)C)C(C)C [SEQ ID NO: 46] (H-IVLSLDVPIGLLQILLEQARARAQRQQAK([AEEA-AEEA-γGlu-γGlu-C20 diacid])TNAEILAEV-NH2) | – |
| – | – | 0.631 | 1580 | CC[C@H](C)[C@H](N)C(=O)N[C@H](C(=O)N[C@@H](CC(C)C)C(=O)N[C@@H](CO)C(=O)N[C@@H](CC(C)C)C(=O)N[C@@H](CC(=O)O)C(=O)N[C@H](C(=O)N1CCC[C@H]1C(=O)N[C@H](C(=O)NCC(=O)N[C@@H](CC(C)C)C(=O)N[C@@H](CC(C)C)C(=O)N[C@@H](CCC(N)=O)C(=O)N[C@H](C(=O)N[C@@H](CC(C)C)C(=O)N[C@@H](CC(C)C)C(=O)N[C@@H](CCC(=O)O)C(=O)N[C@@H](CCC(N)=O)C(=O)N[C@@H](C)C(=O)N[C@@H](CCCNC(=N)N)C(=O)N[C@@H](C)C(=O)N[C@@H](CCCNC(=N)N)C(=O)N[C@@H](CCC(N)=O)C(=O)N[C@@H](C)C(=O)N[C@@H](CCCNC(=N)N)C(=O)N[C@@H](CCC(=O)O)C(=O)N[C@@H](CCC(N)=O)C(=O)N[C@@H](C)C(=O)N[C@@H](CCCCNC(=O)COCCOCCNC(=O)COCCOCCNC(=O)CC[C@H](NC(=O)CC[C@H](NC(=O)CCCCCCCCCCCCCCCCCCC(=O)O)C(=O)O)C(=O)O)C(=O)N[C@H](C(=O)N[C@@H](CC(N)=O)C(=O)N[C@@H](C)C(=O)N[C@@H](CCC(=O)O)C(=O)N[C@H](C(=O)N[C@@H](CC(C)C)C(=O)N[C@@H](C)C(=O)N[C@@H](CCC(=O)O)C(=O)N[C@H](C(N)=O)C(C)C)[C@@H](C)CC)[C@@H](C)O)[C@@H](C)CC)[C@@H](C)CC)C(C)C)C(C)C [compound 52] (H-IVLSLDVPIGLLQILLEQARARQAREQAK([AEEA-AEEA-γGlu-γGlu-C20 diacid])TNAEILAEV-NH2) | – |
| – | – | 0.398 | 20000 | CC[C@H](C)[C@H](N)C(=O)N[C@H](C(=O)N[C@@H](CC(C)C)C(=O)N[C@@H](CO)C(=O)N[C@@H](CC(C)C)C(=O)N[C@@H](CC(=O)O)C(=O)N[C@H](C(=O)N1CCC[C@H]1C(=O)N[C@H](C(=O)NCC(=O)N[C@@H](CC(C)C)C(=O)N[C@@H](CC(C)C)C(=O)N[C@@H](CCC(N)=O)C(=O)N[C@H](C(=O)N[C@@H](CC(C)C)C(=O)N[C@@H](CC(C)C)C(=O)N[C@@H](CCC(=O)O)C(=O)N[C@@H](CCC(N)=O)C(=O)N[C@@H](C)C(=O)N[C@@H](CCCNC(=N)N)C(=O)N[C@@H](C)C(=O)N[C@@H](CCC(N)=O)C(=O)N[C@@H](C)C(=O)N[C@@H](C)C(=O)N[C@@H](CCCNC(=N)N)C(=O)N[C@@H](CCC(N)=O)C(=O)N[C@@H](CCC(N)=O)C(=O)N[C@@H](C)C(=O)N[C@@H](CCCCNC(=O)COCCOCCNC(=O)COCCOCCNC(=O)CC[C@H](NC(=O)CC[C@H](NC(=O)CCCCCCCCCCCCCCCCCCC(=O)O)C(=O)O)C(=O)O)C(=O)N[C@H](C(=O)N[C@@H](CC(N)=O)C(=O)N[C@@H](C)C(=O)N[C@@H](CCC(=O)O)C(=O)N[C@H](C(=O)N[C@@H](CC(C)C)C(=O)N[C@@H](C)C(=O)N[C@@H](CCC(=O)O)C(=O)N[C@H](C(N)=O)C(C)C)[C@@H](C)CC)[C@@H](C)O)[C@@H](C)CC)[C@@H](C)CC)C(C)C)C(C)C [compound 54] (H-IVLSLDVPIGLLQILLEQARAQAARQQAK([AEEA-AEEA-γGlu-γGlu-C20 diacid])TNAEILAEV-NH2) | – |
| – | – | – | – | CCCC[C@H](NC(=O)[C@@H](NC(=O)[C@H](CCC(=O)O)NC(=O)C(C)(C)NC(=O)[C@H](CC(N)=O)NC(=O)[C@@H](NC(=O)[C@H](CCCCNC(=O)COCCOCCNC(=O)COCCOCCNC(=O)CC[C@H](NC(=O)CC[C@H](NC(=O)CCCCCCCCCCCCCCCCCCC(=O)O)C(=O)O)C(=O)O)NC(=O)[C@H](C)NC(=O)[C@H](CCC(N)=O)NC(=O)[C@H](CCC(=O)O)NC(=O)[C@H](CCCNC(=N)N)NC(=O)[C@H](C)NC(=O)[C@H](C)NC(=O)[C@H](CCCNC(=N)N)NC(=O)[C@H](C)NC(=O)[C@H](CCCNC(=N)N)NC(=O)[C@H](C)NC(=O)[C@H](CCC(N)=O)NC(=O)[C@@H](NC(=O)[C@H](CC(C)C)NC(=O)[C@H](CC(C)C)NC(=O)[C@@H](NC(=O)[C@H](CCC(N)=O)NC(=O)[C@H](CC(C)C)NC(=O)[C@H](CC(C)C)NC(=O)CNC(=O)[C@@H](NC(=O)[C@@H]1CCCN1C(=O)[C@@H](NC(=O)[C@H](CC(=O)O)NC(=O)[C@H](CC(C)C)NC(=O)[C@H](CO)NC(=O)[C@H](CC(C)C)NC(=O)[C@@H](NC(=O)[C@@H](NC)[C@@H](C)CC)C(C)C)C(C)C)[C@@H](C)CC)[C@@H](C)CC)[C@@H](C)CC)[C@@H](C)O)[C@@H](C)CC)C(=O)N[C@@H](C)C(=O)N[C@@H](CCC(=O)O)C(=O)N[C@H](C(N)=O)C(C)C [compound 209] (H-[NMeI]VLSLDVPIGLLQILLIQARARAAREQAK([AEEA-AEEA-γGlu-γGlu-C20 diacid])TN[Aib]EI[Nle]AEV-NH2) | EC50 (hCRHR2; Table 4, library peptides having X^38 = Nle, read-out: hCRHR2 pEC50 (converted)): 0.02 nM; EC50 (hCRHR1; Table 4, library peptides having X^38 = Nle, read-out: hCRHR1 pEC50 (converted)): 3160 nM |
| 0.1 | 1260 | – | – | CCCC[C@H](NC(=O)[C@@H](NC(=O)[C@H](CCC(=O)O)NC(=O)[C@H](C)NC(=O)[C@H](CC(N)=O)NC(=O)[C@@H](NC(=O)[C@H](CCCCNC(=O)COCCOCCNC(=O)COCCOCCNC(=O)CC[C@H](NC(=O)CC[C@H](NC(=O)CCCCCCCCCCCCCCCCCCC(=O)O)C(=O)O)C(=O)O)NC(=O)[C@H](C)NC(=O)[C@H](CCC(N)=O)NC(=O)[C@H](CCC(=O)O)NC(=O)[C@H](CCCNC(=N)N)NC(=O)[C@H](C)NC(=O)[C@H](C)NC(=O)[C@H](CCC(N)=O)NC(=O)[C@H](C)NC(=O)[C@H](CCCNC(=N)N)NC(=O)[C@H](C)NC(=O)[C@H](CCC(N)=O)NC(=O)[C@H](CCC(=O)O)NC(=O)[C@H](CC(C)C)NC(=O)[C@H](CC(C)C)NC(=O)[C@@H](NC(=O)[C@H](CCC(N)=O)NC(=O)[C@H](CC(C)C)NC(=O)[C@H](CC(C)C)NC(=O)CNC(=O)[C@@H](NC(=O)[C@@H]1CCCN1C(=O)[C@@H](NC(=O)[C@H](CC(=O)O)NC(=O)[C@H](CC(C)C)NC(=O)[C@H](CO)NC(=O)[C@H](CC(C)C)NC(=O)[C@@H](NC(=O)[C@@H](N)[C@@H](C)CC)C(C)C)C(C)C)[C@@H](C)CC)[C@@H](C)CC)[C@@H](C)O)[C@@H](C)CC)C(=O)N[C@@H](C)C(=O)N[C@@H](CCC(=O)O)C(=O)N[C@H](C(N)=O)[C@@H](C)CC [SEQ ID NO: 44] (H-IVLSLDVPIGLLQILLEQARAQAAREQAK([AEEA-AEEA-γGlu-γGlu-C20 diacid])TNAEI[Nle]AEI-NH2) | – |
